According to PMC9571063 (Molecules, 2022):

Tests used:
Assay in all cases: KINOMEscan
Type in all cases: binding
Conditions in all cases: read-out: Percent Control
QSK = biological target: T1, QSK (Homo sapiens, UniProt Q9Y2K2)
T1 construct: purchased Eurofins DiscoverX KINOMEscan (scanMAX 468)

AAK1 = biological target: T2, AAK1 (Homo sapiens, UniProt Q2M2I8)
T2 construct: purchased Eurofins DiscoverX KINOMEscan (scanMAX 468)

AKT3 = biological target: T3, AKT3 (Homo sapiens, UniProt Q9Y243)
T3 construct: purchased Eurofins DiscoverX KINOMEscan (scanMAX 468)
T3 sequence (Q9Y243 whole entry): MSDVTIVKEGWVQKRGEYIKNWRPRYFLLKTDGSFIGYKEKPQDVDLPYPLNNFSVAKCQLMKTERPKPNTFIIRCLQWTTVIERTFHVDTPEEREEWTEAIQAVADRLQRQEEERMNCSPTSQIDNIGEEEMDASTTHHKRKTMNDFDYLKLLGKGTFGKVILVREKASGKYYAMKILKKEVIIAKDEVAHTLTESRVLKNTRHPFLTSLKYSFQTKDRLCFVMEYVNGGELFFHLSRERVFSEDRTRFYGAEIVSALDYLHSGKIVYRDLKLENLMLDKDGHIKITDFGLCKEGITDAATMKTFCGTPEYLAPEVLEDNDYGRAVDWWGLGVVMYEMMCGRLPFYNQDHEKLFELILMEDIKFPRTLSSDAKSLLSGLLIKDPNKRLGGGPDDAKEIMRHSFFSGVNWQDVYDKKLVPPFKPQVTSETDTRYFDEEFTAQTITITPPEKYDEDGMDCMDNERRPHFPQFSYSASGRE

PHKG2 = biological target: T4, PHKG2 (Homo sapiens, UniProt P15735)
T4 construct: purchased Eurofins DiscoverX KINOMEscan (scanMAX 468)
T4 sequence (P15735 whole entry): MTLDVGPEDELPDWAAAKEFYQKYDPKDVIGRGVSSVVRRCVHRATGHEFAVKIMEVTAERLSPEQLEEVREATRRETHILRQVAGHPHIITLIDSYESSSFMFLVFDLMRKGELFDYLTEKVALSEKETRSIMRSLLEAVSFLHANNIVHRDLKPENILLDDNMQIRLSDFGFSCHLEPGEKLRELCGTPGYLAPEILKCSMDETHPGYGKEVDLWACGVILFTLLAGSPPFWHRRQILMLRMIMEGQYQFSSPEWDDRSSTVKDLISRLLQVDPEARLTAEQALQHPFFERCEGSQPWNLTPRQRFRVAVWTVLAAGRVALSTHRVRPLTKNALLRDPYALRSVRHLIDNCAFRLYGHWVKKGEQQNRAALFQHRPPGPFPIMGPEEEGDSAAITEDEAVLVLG

EPHB4 = biological target: T5, EPHB4 (Homo sapiens, UniProt P54760)
T5 construct: purchased Eurofins DiscoverX KINOMEscan (scanMAX 468)
T5 sequence (P54760 16-987): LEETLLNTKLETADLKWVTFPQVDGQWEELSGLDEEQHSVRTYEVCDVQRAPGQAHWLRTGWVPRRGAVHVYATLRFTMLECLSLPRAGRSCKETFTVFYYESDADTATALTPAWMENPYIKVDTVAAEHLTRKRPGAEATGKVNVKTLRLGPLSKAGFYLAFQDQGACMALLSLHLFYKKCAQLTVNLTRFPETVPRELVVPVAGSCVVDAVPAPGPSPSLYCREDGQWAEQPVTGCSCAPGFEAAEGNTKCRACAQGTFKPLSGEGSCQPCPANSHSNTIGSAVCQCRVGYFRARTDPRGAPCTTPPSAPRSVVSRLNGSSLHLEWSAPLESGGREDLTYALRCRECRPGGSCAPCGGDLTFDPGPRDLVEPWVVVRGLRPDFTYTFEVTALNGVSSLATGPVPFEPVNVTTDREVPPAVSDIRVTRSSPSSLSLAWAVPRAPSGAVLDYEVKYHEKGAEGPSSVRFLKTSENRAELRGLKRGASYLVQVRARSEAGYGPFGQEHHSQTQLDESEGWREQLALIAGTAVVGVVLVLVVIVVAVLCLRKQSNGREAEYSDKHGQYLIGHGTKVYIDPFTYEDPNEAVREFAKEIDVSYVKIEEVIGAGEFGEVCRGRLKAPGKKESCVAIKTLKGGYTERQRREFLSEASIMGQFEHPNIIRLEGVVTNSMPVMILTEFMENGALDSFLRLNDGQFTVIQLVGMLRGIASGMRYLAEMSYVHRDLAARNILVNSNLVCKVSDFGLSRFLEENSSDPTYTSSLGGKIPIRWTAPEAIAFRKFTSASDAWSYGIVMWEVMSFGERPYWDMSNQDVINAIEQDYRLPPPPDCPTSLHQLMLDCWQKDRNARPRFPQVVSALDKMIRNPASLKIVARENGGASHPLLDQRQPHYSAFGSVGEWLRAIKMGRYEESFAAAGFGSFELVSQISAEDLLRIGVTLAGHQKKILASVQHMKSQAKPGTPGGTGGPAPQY

PIK4CB = biological target: T6, PIK4CB (Homo sapiens, UniProt Q9UBF8)
T6 construct: purchased Eurofins DiscoverX KINOMEscan (scanMAX 468)
T6 sequence (Q9UBF8 whole entry): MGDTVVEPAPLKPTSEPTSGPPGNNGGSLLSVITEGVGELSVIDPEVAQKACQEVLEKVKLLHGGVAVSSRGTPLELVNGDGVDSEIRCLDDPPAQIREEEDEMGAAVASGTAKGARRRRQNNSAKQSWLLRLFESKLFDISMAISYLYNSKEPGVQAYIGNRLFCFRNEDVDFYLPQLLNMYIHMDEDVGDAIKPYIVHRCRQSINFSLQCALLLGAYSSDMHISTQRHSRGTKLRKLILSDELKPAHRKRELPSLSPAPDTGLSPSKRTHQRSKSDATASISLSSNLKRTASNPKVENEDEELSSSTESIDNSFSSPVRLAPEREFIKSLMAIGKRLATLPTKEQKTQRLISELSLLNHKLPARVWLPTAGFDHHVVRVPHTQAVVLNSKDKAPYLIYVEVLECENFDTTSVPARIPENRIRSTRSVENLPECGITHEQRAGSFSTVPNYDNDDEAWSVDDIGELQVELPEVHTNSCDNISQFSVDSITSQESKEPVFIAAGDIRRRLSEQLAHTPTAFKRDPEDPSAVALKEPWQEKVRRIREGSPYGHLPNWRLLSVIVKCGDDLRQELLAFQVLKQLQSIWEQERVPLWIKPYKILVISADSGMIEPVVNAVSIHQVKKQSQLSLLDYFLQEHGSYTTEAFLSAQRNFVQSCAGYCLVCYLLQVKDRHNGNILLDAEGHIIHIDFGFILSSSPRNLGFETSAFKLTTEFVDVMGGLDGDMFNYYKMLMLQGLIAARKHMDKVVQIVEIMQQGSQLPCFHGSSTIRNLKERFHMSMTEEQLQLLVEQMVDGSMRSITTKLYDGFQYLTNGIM

T2 sequence (Q2M2I8 whole entry): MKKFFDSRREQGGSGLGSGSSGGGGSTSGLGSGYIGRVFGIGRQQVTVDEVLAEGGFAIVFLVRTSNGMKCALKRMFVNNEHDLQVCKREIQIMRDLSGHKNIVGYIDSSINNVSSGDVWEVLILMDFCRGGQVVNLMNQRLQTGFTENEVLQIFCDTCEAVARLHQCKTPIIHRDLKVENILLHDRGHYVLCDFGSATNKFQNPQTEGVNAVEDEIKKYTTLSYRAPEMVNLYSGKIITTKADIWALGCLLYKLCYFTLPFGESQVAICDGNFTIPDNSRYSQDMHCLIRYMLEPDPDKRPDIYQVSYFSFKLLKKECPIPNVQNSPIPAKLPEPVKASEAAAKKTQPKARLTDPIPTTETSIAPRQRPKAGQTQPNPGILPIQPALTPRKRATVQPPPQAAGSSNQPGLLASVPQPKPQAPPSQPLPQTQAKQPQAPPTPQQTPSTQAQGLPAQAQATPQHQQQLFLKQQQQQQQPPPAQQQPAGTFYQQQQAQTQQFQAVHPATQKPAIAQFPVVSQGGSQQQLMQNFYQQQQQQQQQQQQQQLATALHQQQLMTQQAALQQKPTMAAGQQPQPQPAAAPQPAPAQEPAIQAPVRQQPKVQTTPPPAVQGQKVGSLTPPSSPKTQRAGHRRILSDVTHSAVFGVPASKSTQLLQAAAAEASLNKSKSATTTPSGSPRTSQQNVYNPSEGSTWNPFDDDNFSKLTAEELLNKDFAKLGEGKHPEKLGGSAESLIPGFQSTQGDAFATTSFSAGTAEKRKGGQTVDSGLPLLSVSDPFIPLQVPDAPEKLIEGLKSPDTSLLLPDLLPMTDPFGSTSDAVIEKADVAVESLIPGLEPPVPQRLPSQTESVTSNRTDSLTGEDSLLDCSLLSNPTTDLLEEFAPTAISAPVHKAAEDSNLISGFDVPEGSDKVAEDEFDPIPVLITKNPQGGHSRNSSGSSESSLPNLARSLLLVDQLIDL
T1 sequence (Q9Y2K2 whole entry): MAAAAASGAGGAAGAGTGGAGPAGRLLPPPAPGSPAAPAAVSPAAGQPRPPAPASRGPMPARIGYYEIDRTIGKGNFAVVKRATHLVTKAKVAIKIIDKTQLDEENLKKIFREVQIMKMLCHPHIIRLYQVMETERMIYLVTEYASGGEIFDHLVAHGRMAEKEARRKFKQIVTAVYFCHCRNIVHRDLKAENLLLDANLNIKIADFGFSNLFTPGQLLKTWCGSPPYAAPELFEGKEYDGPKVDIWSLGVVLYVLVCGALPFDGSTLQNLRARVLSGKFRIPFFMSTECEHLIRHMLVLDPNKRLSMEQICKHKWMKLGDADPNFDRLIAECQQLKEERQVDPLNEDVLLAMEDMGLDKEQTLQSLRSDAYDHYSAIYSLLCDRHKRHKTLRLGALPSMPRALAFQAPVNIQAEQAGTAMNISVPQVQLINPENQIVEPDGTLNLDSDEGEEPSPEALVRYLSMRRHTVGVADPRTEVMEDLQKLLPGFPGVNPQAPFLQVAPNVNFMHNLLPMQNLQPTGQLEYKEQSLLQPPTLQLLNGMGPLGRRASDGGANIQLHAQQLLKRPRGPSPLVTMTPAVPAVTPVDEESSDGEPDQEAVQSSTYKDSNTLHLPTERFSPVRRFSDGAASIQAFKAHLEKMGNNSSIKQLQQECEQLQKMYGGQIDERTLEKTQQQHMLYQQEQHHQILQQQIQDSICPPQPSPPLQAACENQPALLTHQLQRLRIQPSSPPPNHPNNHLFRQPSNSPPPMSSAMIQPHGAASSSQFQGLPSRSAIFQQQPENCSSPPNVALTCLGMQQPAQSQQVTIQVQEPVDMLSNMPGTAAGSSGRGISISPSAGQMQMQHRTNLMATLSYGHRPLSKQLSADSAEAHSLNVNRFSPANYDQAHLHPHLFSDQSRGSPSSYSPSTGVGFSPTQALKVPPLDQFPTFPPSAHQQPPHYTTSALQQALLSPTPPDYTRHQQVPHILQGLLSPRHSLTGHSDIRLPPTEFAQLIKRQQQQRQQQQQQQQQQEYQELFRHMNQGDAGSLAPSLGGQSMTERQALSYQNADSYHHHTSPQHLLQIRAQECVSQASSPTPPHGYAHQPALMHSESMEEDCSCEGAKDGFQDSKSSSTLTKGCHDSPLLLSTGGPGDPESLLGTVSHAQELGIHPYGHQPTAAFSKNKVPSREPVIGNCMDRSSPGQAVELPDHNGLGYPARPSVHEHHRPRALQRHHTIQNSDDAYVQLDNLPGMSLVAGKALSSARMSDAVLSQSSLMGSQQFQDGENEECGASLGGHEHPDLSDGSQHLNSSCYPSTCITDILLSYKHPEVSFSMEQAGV

Q: For `Cc1ccc(-n2cc(COc3cccc4cnc(Nc5cccc(Cl)c5)nc34)nn2)c([N+](=O)[O-])c1` [DB18], which remaining binding at 1 µM (QSK) is on record?
A: Its remaining binding at 1 µM is 96%.

Q: And the remaining binding at 1 µM (AAK1)?
A: The remaining binding at 1 µM was 100%.

Q: What about the remaining binding at 1 µM (AKT3) of the same compound?
A: Its remaining binding at 1 µM is 100%.

Q: What about the remaining binding at 1 µM (PHKG2) of the same compound?
A: The remaining binding at 1 µM was 95%.

Q: And the remaining binding at 1 µM (EPHB4)?
A: The remaining binding at 1 µM was 100%.

Q: What about the remaining binding at 1 µM (PIK4CB) of the same compound?
A: The remaining binding at 1 µM was 94%.
